Source: article PMC3961306, “Comparison of the Cancer Gene Targeting and Biochemical Selectivities of All Targeted Kinase Inhibitors Approved for Clinical Use” (PLoS ONE, 2014)

Assays:
Experiment in all cases: Kinase profiling in a biochemical assay panel (mobility shift assays and ELISA), %-inhibition at 1 μM; selectivity entropy
[1] = target: T1, panel of more than 300 wild-type and mutant kinases (313 kinase panel) (Homo sapiens, UniProt O43781); settings: kinase DYRK3; compound at 1 μM
T1 sequence (O43781 1-588): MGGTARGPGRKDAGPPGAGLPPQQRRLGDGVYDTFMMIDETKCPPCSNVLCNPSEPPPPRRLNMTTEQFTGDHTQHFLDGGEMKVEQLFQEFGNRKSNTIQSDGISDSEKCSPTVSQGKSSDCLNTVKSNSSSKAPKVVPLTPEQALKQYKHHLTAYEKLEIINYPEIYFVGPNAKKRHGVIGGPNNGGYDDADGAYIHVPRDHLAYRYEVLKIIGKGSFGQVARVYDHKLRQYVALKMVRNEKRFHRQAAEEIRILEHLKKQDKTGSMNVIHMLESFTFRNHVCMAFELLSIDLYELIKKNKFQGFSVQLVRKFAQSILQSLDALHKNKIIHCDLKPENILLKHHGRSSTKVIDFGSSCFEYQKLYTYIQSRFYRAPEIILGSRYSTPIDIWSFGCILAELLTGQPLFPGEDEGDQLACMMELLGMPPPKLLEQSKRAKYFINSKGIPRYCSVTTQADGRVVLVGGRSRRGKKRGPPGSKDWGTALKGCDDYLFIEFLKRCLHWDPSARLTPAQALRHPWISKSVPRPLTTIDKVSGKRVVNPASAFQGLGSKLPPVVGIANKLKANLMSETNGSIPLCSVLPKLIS

[2] = target: panel of more than 300 wild-type and mutant kinases (313 kinase panel) (Homo sapiens, UniProt Q9NQU5)
[3] = target: T2, panel of more than 300 wild-type and mutant kinases (313 kinase panel) (Homo sapiens, UniProt P54760)
T2 sequence (P54760 16-987): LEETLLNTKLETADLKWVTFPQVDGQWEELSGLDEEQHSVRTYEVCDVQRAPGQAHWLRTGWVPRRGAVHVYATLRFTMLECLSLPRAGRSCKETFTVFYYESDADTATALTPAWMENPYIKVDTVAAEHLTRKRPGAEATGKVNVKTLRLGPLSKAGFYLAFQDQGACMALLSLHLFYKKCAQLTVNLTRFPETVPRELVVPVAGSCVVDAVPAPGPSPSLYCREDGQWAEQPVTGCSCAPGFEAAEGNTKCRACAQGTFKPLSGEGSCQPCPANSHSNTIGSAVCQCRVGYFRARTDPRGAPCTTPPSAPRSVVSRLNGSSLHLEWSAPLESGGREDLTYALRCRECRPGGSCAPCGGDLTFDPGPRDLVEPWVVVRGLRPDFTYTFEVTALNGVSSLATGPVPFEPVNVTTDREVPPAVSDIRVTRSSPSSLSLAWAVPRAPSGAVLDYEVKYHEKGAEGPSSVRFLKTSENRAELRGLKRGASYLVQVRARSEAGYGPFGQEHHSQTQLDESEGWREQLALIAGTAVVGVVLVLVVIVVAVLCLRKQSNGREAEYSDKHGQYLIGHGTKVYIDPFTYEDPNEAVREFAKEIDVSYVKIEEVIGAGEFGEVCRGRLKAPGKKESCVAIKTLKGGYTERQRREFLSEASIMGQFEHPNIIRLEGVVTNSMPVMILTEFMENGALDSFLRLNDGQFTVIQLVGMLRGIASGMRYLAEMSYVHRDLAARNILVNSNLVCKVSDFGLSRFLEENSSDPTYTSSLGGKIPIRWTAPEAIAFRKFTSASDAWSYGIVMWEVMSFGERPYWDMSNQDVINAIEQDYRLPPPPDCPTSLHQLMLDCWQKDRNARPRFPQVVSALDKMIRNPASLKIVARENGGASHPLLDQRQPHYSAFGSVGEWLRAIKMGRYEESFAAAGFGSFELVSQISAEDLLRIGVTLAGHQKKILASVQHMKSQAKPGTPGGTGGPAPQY

[4] = target: panel of more than 300 wild-type and mutant kinases (313 kinase panel) (Homo sapiens, UniProt P54756)
[5] = target: panel of more than 300 wild-type and mutant kinases (313 kinase panel) (Homo sapiens, UniProt P41279); settings: kinase COT; compound at 1 μM
Chain of panel of more than 300 wild-type and mutant kinases (313 kinase panel) (Homo sapiens, UniProt P41279) (P41279 whole entry, change not shown): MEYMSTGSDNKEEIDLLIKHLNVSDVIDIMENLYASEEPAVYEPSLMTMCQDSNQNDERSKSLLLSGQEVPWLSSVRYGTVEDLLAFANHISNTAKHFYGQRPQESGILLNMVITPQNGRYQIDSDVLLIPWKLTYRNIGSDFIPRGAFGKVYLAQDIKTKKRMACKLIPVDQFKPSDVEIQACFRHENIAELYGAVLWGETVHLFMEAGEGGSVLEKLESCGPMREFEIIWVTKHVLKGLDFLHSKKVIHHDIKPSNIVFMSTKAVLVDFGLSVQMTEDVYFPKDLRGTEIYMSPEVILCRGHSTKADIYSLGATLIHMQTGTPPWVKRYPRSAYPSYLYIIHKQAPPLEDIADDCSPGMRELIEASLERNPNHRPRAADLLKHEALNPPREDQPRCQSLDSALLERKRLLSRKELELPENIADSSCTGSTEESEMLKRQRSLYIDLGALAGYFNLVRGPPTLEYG

[6] = target: panel of more than 300 wild-type and mutant kinases (313 kinase panel) (Homo sapiens, UniProt P30291)
Chain of panel of more than 300 wild-type and mutant kinases (313 kinase panel) (Homo sapiens, UniProt P30291) (P30291 whole entry, change not shown): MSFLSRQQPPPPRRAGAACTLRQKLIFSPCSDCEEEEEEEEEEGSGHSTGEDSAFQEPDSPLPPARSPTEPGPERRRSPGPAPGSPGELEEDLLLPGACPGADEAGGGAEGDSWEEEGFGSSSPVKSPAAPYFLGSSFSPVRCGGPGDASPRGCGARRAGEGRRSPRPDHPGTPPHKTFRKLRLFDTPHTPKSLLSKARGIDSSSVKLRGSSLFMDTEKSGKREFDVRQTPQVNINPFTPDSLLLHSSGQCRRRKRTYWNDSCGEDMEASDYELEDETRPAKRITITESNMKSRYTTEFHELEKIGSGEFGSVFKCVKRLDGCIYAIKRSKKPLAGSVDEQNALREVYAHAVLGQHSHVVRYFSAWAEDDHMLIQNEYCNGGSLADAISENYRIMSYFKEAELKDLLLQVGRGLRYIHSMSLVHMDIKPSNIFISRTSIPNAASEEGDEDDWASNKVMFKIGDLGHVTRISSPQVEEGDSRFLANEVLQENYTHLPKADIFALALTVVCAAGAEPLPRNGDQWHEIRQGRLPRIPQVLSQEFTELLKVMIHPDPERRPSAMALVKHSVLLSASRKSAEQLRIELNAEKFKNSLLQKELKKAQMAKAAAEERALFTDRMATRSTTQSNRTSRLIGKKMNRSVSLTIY

[7] = target: panel of more than 300 wild-type and mutant kinases (313 kinase panel) (Homo sapiens, UniProt P06241); settings: kinase FYN; compound at 1 μM
Chain of panel of more than 300 wild-type and mutant kinases (313 kinase panel) (Homo sapiens, UniProt P06241) (P06241 whole entry, change not shown): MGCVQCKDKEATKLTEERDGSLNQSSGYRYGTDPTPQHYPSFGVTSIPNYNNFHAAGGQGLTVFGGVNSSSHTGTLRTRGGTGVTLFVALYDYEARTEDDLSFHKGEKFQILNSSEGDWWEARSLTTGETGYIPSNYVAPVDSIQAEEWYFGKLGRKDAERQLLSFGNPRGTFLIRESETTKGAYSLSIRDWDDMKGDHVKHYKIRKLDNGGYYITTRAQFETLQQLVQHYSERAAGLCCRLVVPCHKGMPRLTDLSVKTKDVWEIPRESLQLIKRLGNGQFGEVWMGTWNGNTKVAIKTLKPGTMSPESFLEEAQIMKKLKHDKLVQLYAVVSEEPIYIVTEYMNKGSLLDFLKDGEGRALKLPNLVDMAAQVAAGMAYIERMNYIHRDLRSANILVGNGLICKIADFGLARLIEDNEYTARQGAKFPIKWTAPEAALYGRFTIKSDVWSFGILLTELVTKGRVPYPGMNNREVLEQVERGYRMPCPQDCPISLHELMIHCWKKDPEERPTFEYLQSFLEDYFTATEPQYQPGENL

[8] = target: T3, panel of more than 300 wild-type and mutant kinases (313 kinase panel) (Homo sapiens, UniProt P43403)
T3 sequence (P43403 1-619): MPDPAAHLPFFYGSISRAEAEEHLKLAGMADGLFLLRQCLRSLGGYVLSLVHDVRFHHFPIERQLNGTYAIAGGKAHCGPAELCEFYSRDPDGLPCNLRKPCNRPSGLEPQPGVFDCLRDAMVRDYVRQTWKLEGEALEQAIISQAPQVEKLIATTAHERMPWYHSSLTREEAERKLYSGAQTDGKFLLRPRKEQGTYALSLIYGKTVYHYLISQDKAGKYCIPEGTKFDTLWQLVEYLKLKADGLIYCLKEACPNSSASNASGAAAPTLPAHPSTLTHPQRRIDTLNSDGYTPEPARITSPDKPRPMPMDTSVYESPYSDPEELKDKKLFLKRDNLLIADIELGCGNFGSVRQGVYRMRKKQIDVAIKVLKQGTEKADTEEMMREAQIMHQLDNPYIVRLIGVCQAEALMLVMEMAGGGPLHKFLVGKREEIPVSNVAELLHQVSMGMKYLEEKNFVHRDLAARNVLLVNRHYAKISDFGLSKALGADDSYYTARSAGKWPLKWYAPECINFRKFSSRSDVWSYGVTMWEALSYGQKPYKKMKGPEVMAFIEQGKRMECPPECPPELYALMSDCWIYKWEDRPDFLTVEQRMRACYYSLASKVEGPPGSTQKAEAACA

CNC(=O)c1cc(Oc2ccc(NC(=O)Nc3ccc(Cl)c(C(F)(F)F)c3)c(F)c2)ccn1 [regorafenib]
%-inhibition of DYRK3 [1]: 15%
%-inhibition of PAK6 ([2]; kinase PAK6, 1 μM): -8%
%-inhibition of EPHB4 ([3]; kinase EPHB4, compound at 1 μM): 80%
%-inhibition of EPHA5 ([4]; kinase EPHA5, compound at 1 μM): 97%
%-inhibition of COT [5]: -4%
%-inhibition of WEE1 ([6]; kinase WEE1, compound at 1 μM): 4.42%
%-inhibition of FYN [7]: 55%
%-inhibition of ZAP70 ([8]; kinase ZAP70, compound at 1 μM): -0.475%

O=S(=O)(c1cccc2cnccc12)N1CCCNCC1 [fasudil]
%-inhibition of DYRK3 [1]: 26%
%-inhibition of PAK6 ([2]; kinase PAK6, 1 μM): 8%
%-inhibition of EPHB4 ([3]; kinase EPHB4, compound at 1 μM): -5.34%
%-inhibition of EPHA5 ([4]; kinase EPHA5, compound at 1 μM): -3.43%
%-inhibition of COT [5]: 12%
%-inhibition of WEE1 ([6]; kinase WEE1, compound at 1 μM): -0.258%
%-inhibition of FYN [7]: 8.5%
%-inhibition of ZAP70 ([8]; kinase ZAP70, compound at 1 μM): -2%

C[C@@H](Oc1cc(-c2cnn(C3CCNCC3)c2)cnc1N)c1c(Cl)ccc(F)c1Cl [crizotinib]
%-inhibition of DYRK3 [1]: 14%
%-inhibition of PAK6 ([2]; kinase PAK6, 1 μM): 3%
%-inhibition of EPHB4 ([3]; kinase EPHB4, compound at 1 μM): 83%
%-inhibition of EPHA5 ([4]; kinase EPHA5, compound at 1 μM): 71%
%-inhibition of COT [5]: 11%
%-inhibition of WEE1 ([6]; kinase WEE1, compound at 1 μM): 12%
%-inhibition of FYN [7]: 42%
%-inhibition of ZAP70 ([8]; kinase ZAP70, compound at 1 μM): 21%

Cc1cn(-c2cc(NC(=O)c3ccc(C)c(Nc4nccc(-c5cccnc5)n4)c3)cc(C(F)(F)F)c2)cn1 [nilotinib]
%-inhibition of DYRK3 [1]: -1.09%
%-inhibition of PAK6 ([2]; 1 µM): -102%
%-inhibition of EPHB4 ([3]; 1 µM): 91%
%-inhibition of EPHA5 ([4]; 1 µM): 93%
%-inhibition of COT [5]: 2.3%
%-inhibition of WEE1 ([6]; 1 µM): 3.74%
%-inhibition of FYN [7]: 59%
%-inhibition of ZAP70 ([8]; 1 µM): 2.52%

COc1cc2nccc(Oc3ccc(NC(=O)C4(C(=O)Nc5ccc(F)cc5)CC4)cc3)c2cc1OC [cabozantinib]
%-inhibition of DYRK3 [1]: 4%
%-inhibition of PAK6 ([2]; kinase PAK6, 1 μM): -4%
%-inhibition of EPHB4 ([3]; kinase EPHB4, compound at 1 μM): 96%
%-inhibition of EPHA5 ([4]; kinase EPHA5, compound at 1 μM): 99%
%-inhibition of COT [5]: 18%
%-inhibition of WEE1 ([6]; kinase WEE1, compound at 1 μM): 5.45%
%-inhibition of FYN [7]: 91%
%-inhibition of ZAP70 ([8]; kinase ZAP70, compound at 1 μM): 0.856%
